How the values were obtained:
[1] = target: T1, DDB1DB/DCAF15 and RBM39 R1R2 complex (Homo sapiens, UniProt Q14498+Q66K64); test: DCAF15 RBM39 Complex Formation Assay (FRET); type: binding; conditions: FRET ratio Em 665/Em 615, incubated overnight at 4° C.
T1 construct: Amino acids 150 to 331 of RBM39 were cloned into pGEX4T3; GST (from vector pGEX4T3); TEV cleavage site (N); made in house; host or cells: DDB1DB/His-DCAF15: baculovirus/Sf9 co-expression; RBM39 R1R2: E. coli (pGEX4T3)
In short: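 Ternary complex formation read by TR-FRET (Em 665/615, excitation 340 nm) after overnight incubation at 4° C of 20 nM baculovirus DDB1DB/His-DCAF15 and 50 nM E. coli RBM39 RRM1-RRM2 FLAG fragment with 14-point, 3-fold compound dilutions from 1 μM; EC50 from 4-parameter fit.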

[2] = tested on: HCT116 human colorectal carcinoma cells; test: CellTiter-Glo Luminescent Cell Viability Assay; type: cell-based; conditions: HCT-116, 72 h, 3 days
In short: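 CellTiter-Glo luminescence gave viability after 3 days of compound exposure in HCT116 cells grown in DMEM/10% FBS. Final concentrations ran from 5 to 0.0002 […] in 1:3 steps, each in triplicate, with IC50 derived from the curves.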

T1 sequence (Q66K64 whole entry, the tested form may be a part): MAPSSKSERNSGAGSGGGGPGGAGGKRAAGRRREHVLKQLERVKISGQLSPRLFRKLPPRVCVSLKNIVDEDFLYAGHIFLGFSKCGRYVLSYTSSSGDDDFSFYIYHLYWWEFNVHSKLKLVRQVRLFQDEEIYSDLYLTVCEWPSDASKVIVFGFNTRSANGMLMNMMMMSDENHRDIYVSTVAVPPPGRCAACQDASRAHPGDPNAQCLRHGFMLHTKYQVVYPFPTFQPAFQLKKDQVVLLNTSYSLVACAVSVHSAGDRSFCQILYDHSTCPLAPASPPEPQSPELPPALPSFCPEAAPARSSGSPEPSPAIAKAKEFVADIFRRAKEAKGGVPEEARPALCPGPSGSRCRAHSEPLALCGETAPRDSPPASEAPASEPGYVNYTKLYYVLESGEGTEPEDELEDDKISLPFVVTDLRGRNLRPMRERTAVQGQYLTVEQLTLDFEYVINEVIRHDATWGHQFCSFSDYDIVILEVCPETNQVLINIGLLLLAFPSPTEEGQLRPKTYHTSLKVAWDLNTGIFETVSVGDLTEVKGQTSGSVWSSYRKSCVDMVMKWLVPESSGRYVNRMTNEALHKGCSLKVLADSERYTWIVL
T1 sequence (Q14498 150-331): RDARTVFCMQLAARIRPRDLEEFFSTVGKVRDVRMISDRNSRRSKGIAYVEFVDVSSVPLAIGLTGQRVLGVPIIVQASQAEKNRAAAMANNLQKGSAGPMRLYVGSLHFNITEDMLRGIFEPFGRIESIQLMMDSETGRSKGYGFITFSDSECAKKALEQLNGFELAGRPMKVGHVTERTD
T1 sequence (Q16531 with tags, fused parts or gaps DEL396-708 partner): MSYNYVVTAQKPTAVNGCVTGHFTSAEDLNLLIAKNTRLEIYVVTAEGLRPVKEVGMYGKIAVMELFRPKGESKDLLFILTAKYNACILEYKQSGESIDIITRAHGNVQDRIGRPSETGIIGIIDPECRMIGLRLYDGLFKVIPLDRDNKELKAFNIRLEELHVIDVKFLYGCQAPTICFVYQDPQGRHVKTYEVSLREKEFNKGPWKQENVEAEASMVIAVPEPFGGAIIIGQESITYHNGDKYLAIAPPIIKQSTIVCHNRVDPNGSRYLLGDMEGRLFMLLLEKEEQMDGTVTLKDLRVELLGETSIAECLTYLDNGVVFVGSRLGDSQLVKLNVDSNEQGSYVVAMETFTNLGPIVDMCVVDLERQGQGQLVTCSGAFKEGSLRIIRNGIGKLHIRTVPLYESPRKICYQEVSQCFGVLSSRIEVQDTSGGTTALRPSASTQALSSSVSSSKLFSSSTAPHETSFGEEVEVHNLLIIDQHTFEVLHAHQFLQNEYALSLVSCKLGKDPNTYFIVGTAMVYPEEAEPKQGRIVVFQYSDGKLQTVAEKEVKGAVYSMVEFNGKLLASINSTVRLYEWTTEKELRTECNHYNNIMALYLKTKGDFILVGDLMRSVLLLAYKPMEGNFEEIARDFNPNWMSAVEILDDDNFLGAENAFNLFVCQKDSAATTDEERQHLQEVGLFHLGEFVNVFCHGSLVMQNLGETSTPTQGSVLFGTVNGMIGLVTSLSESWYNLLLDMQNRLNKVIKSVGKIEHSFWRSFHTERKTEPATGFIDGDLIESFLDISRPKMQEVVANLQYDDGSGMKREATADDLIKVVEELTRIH

SMILES | IC50 [1] | EC50 [2]
N#Cc1c[nH]c2c(NS(=O)(=O)c3cnn([C@@H](CO)CF)c3)ccc(F)c12 [Compound 247] | < 250 nM | > 1000 nM
N#Cc1c[nH]c2c(NS(=O)(=O)c3cnn(C[C@H](N)C(F)(F)F)c3)ccc(Cl)c12 [Compound 248, 1-[(2S)-2-amino-3,3,3-trifluoro-propyl]-N-(4-chloro-3-cyano-1H-indol-7-yl)pyrazole-4-sulfonamide] | < 250 nM | 250 to 1000 nM
Cc1ccc(NS(=O)(=O)c2cnn(C[C@H](N)C(F)(F)F)c2)c2[nH]cc(C#N)c12 [Compound 249, 1-[(2S)-2-amino-3,3,3-trifluoro-propyl]-N-(3-cyano-4-methyl-1H-indol-7-yl)pyrazole-4-sulfonamide] | < 250 nM | 250 to 1000 nM
CC(C)(CO)n1ncc(S(=O)(=O)Nc2ccc(Cl)c3c(C#N)c[nH]c23)c1Cl [Compound 250, 5-chloro-N-(4-chloro-3-cyano-1H-indol-7-yl)-1-(2-hydroxy-1,1-dimethyl-ethyl)pyrazole-4-sulfonamide] | < 250 nM | < 250 nM
CC(C)(CO)n1ncc(S(=O)(=O)Nc2cccc3c(C#N)c[nH]c23)c1Cl [Compound 251, 5-chloro-N-(3-cyano-1H-indol-7-yl)-1-(2-hydroxy-1,1-dimethyl-ethyl)pyrazole-4-sulfonamide] | < 250 nM | 250 to 1000 nM
Cc1ccc(NS(=O)(=O)c2cn(C(C)(C)CO)nc2Cl)c2[nH]cc(C#N)c12 [Compound 252, 3-chloro-N-(3-cyano-4-methyl-1H-indol-7-yl)-1-(2-hydroxy-1,1-dimethyl-ethyl)pyrazole-4-sulfonamide] | < 250 nM | 250 to 1000 nM
CC(C)(CO)n1cc(S(=O)(=O)Nc2cccc3c(C#N)c[nH]c23)c(Cl)n1 [Compound 253, 3-chloro-N-(3-cyano-1H-indol-7-yl)-1-(2-hydroxy-1,1-dimethyl-ethyl)pyrazole-4-sulfonamide] | < 250 nM | > 1000 nM
CC(C)(C)OC(=O)N1CC(F)(Cn2cc(S(=O)(=O)Nc3ccc(Cl)c4c(C#N)c[nH]c34)cn2)C1 [Compound 254, tert-butyl 3-[[4-[(4-chloro-3-cyano-1H-indol-7-yl)sulfamoyl]pyrazol-1-yl]methyl]-3-fluoro-azetidine-1-carboxylate] | < 250 nM | 250 to 1000 nM
Cc1ccc(NS(=O)(=O)c2cnn(CC3(F)CN(C(=O)OC(C)(C)C)C3)c2)c2[nH]cc(C#N)c12 [Compound 255, tert-butyl 3-[[4-[(3-cyano-4-methyl-1H-indol-7-yl)sulfamoyl]pyrazol-1-yl]methyl]-3-fluoro-azetidine-1-carboxylate] | < 250 nM | 250 to 1000 nM
N#Cc1c[nH]c2c(NS(=O)(=O)c3cnn(CC4(F)CNC4)c3)ccc(Cl)c12 [Compound 256, N-(4-chloro-3-cyano-1H-indol-7-yl)-1-[(3-fluoroazetidin-3-yl)methyl]pyrazol-4-sulfonamide] | < 250 nM | > 1000 nM
Cc1ccc(NS(=O)(=O)c2cnn(CC3(F)CNC3)c2)c2[nH]cc(C#N)c12 [Compound 257, N-(3-cyano-4-methyl-1H-indol-7-yl)-1-[(3-fluoroazetidin-3-yl)methyl]pyrazole-4-sulfonamide] | < 250 nM | 250 to 1000 nM
Cc1ccc(NS(=O)(=O)c2cnn(CC(C)(C)CO)c2)c2[nH]cc(C#N)c12 [Compound 258, N-(3-cyano-4-methyl-1H-indol-7-yl)-1-(3-hydroxy-2,2-dimethylpropyl)-1H-pyrazole-4-sulfonamide] | < 250 nM | < 250 nM
CC(C)(CO)n1cc(S(=O)(=O)Nc2ccc(Cl)c3c(C#N)c[nH]c23)c(Cl)n1 [Compound 260, 3-chloro-N-(4-chloro-3-cyano-1H-indol-7-yl)-1-(2-hydroxy-1,1-dimethyl-ethyl)pyrazole-4-sulfonamide] | < 250 nM | > 1000 nM
CC(C)(CO)n1cc(S(=O)(=O)Nc2ccc(F)c3c(C#N)c[nH]c23)c(Cl)n1 [Compound 261, 3-chloro-N-(3-cyano-4-fluoro-1H-indol-7-yl)-1-(2-hydroxy-1,1-dimethyl-ethyl)pyrazole-4-sulfonamide] | < 250 nM | > 1000 nM
COCC(CO)n1cc(S(=O)(=O)Nc2ccc(Cl)c3c(C#N)c[nH]c23)cn1 (stereo not shown) [Compound 262, N-(4-chloro-3-cyano-1H-indol-7-yl)-1-[1-(hydroxymethyl)-2-methoxy-ethyl]pyrazole-4-sulfonamide] | < 250 nM | 250 to 1000 nM
COCC(CO)n1cc(S(=O)(=O)Nc2ccc(C)c3c(C#N)c[nH]c23)cn1 (stereo not shown) [Compound 263, N-(3-cyano-4-methyl-1H-indol-7-yl)-1-[1-(hydroxymethyl)-2-methoxy-ethyl]pyrazole-4-sulfonamide] | < 250 nM | 250 to 1000 nM

SMILES | IC50 [1] | EC50 [2]
Cc1ccc(NS(=O)(=O)c2cnn(C[C@@H](C)CO)c2)c2[nH]cc(C#N)c12 [Compound 264, N-(3-cyano-4-methyl-1H-indol-7-yl)-1-[(2R)-3-hydroxy-2-methyl-propyl]pyrazole-4-sulfonamide] | < 250 nM | < 250 nM
C[C@@H](CO)Cn1cc(S(=O)(=O)Nc2ccc(Cl)c3c(C#N)c[nH]c23)cn1 [Compound 265, N-(4-chloro-3-cyano-1H-indol-7-yl)-1-[(2R)-3-hydroxy-2-methyl-propyl]pyrazole-4-sulfonamide] | < 250 nM | 250 to 1000 nM
C[C@@H](CO)n1cc(S(=O)(=O)Nc2ccc(Cl)c3c(C#N)c[nH]c23)cn1 [Compound 266, N-(4-chloro-3-cyano-1H-indol-7-yl)-1-[(1S)-2-hydroxy-1-methyl-ethyl]pyrazole-4-sulfonamide] | < 250 nM | 250 to 1000 nM
C[C@@H](CO)n1cc(S(=O)(=O)Nc2ccc(F)c3c(C#N)c[nH]c23)cn1 [Compound 267, N-(3-cyano-4-fluoro-1H-indol-7-yl)-1-[(1S)-2-hydroxy-1-methyl-ethyl]pyrazole-4-sulfonamide] | < 250 nM | 250 to 1000 nM
Cc1ccc(NS(=O)(=O)c2cnn(C3(CO)CC3)c2)c2[nH]cc(C#N)c12 [Compound 268, N-(3-cyano-4-methyl-1H-indol-7-yl)-1-[1-(hydroxymethyl)cyclopropyl]pyrazole-4-sulfonamide] | < 250 nM | < 250 nM
N#Cc1c[nH]c2c(NS(=O)(=O)c3cnn(C4(CO)CC4)c3)ccc(Cl)c12 [Compound 269, N-(4-chloro-3-cyano-1H-indol-7-yl)-1-[1-(hydroxymethyl)cyclopropyl]pyrazole-4-sulfonamide] | < 250 nM | 250 to 1000 nM
Cc1ccc(NS(=O)(=O)c2cnn(CCC(C)O)c2)c2[nH]cc(C#N)c12 (stereo not shown) [Compound 270, N-(3-cyano-4-methyl-1H-indol-7-yl)-1-(3-hydroxybutyl)pyrazole-4-sulfonamide] | < 250 nM | 250 to 1000 nM
CCn1ncc(S(=O)(=O)Nc2ccc(C)c3c(C#N)c[nH]c23)c1N [Compound 271, 5-amino-N-(3-cyano-4-methyl-1H-indol-7-yl)-1-ethyl-pyrazole-4-sulfonamide] | < 250 nM | < 250 nM
CCn1ncc(S(=O)(=O)Nc2ccc(F)c3c(C#N)c[nH]c23)c1N [Compound 272, 5-amino-N-(3-cyano-4-fluoro-1H-indol-7-yl)-1-ethyl-pyrazole-4-sulfonamide] | < 250 nM | 250 to 1000 nM
CCn1ncc(S(=O)(=O)Nc2ccc(Cl)c3c(C#N)c[nH]c23)c1N [Compound 273, 5-amino-N-(4-chloro-3-cyano-1H-indol-7-yl)-1-ethyl-pyrazole-4-sulfonamide] | < 250 nM | < 250 nM
Cc1ccc(NS(=O)(=O)c2cnn([C@H](C)[C@H](C)O)c2)c2[nH]cc(C#N)c12 [Compound 274, N-(3-cyano-4-methyl-1H-indol-7-yl)-1-[(1R,2S)-2-hydroxy-1-methyl-propyl]pyrazole-4-sulfonamide] | < 250 nM | < 250 nM
C[C@H](O)[C@@H](C)n1cc(S(=O)(=O)Nc2ccc(Cl)c3c(C#N)c[nH]c23)cn1 [Compound 275, N-(4-chloro-3-cyano-1H-indol-7-yl)-1-[(1R,2S)-2-hydroxy-1-methyl-propyl]pyrazole-4-sulfonamide] | < 250 nM | 250 to 1000 nM
Cc1ccc(NS(=O)(=O)c2cnn(CC(C)(C)O)c2Cl)c2[nH]cc(C#N)c12 [Compound 276, 5-chloro-N-(3-cyano-4-methyl-1H-indol-7-yl)-1-(2-hydroxy-2-methyl-propyl)pyrazole-4-sulfonamide] | < 250 nM | 250 to 1000 nM
Cc1ccc(NS(=O)(=O)c2cnn(CC(F)F)c2N)c2[nH]cc(C#N)c12 [Compound 277, 5-amino-N-(3-cyano-4-methyl-1H-indol-7-yl)-1-(2,2-difluoroethyl)pyrazole-4-sulfonamide] | < 250 nM | < 250 nM
N#Cc1c[nH]c2c(NS(=O)(=O)c3cnn(CC(F)F)c3N)ccc(Cl)c12 [Compound 278, 5-amino-N-(4-chloro-3-cyano-1H-indol-7-yl)-1-(2,2-difluoroethyl)pyrazole-4-sulfonamide] | < 250 nM | < 250 nM
N#Cc1c[nH]c2c(NS(=O)(=O)c3cnn(CC(F)F)c3N)ccc(F)c12 [Compound 279, 5-amino-N-(4-cyano-4-fluoro-1H-indol-7-yl)-1-(2,2-difluoroethyl)pyrazole-4-sulfonamide] | < 250 nM | 250 to 1000 nM
